These results are taken from patent publication US11236122B2, “Triterpene amine derivatives” (DFH THERAPEUTICS, priority 2018, dated 2022).

The test system of one experiment is WT pNL4-3. The experiment is described as follows: CA-SP1 accumulation assay, WT NL4-3. It is filed as cell-based, HIV-1. The settings on record: HeLa or 293T cells; for % CA-SP1 Accumulation 10 nM NL4-3: 10 nM compound; for % CA-SP1 Accumulation 100 nM NL4-3: 100 nM compound. How it is done: (§1) Cell culture, plasmids and transfections. The MT-4 T-cell line was maintained in RPMI-1640 medium supplemented with 10% (vol/vol) fetal bovine serum (FBS), 2 mM glutamine, 100 U/mL penicillin and 100 μg/mL streptomycin at 37° C. in a humidified 5% CO2 atmosphere. HeLa and 293T cells were maintained in Dulbecco's modified Eagle's medium (DMEM) supplemented with 5% (vol/vol) FBS, 2 mM glutamine, 100 U/mL penicillin and 100 μg/mL streptomycin. Molecular clones used in this study were WT pNL4-3 and the derivative encoding a Val-to-Ala mutation at SP1 residue 7, referred to as SP1-V7A. The MT-4 T-cell line was transfected the DEAE/dextran procedure; HeLa and 293T cells were transfected with linear polyethylenimine (L-PEI) or Lipofectamine 2000 (Invitrogen) as recommended by the supplier.
(§2) CA-SP1 accumulation assay. For CA-SP1 accumulation assays, HeLa or 293T cells were transfected with WT pNL4-3 or the SP1-V7A derivative. At 24 h post-transfection, cells were starved in Met/Cys-free medium for 30 min and metabolically labeled with [^35S]Met/Cys-Pro-mix (Amersham) for 2-3 h. Maturation inhibitors were maintained in the cultures throughout the transfection and labeling period. Viruses were collected by ultracentrifugation at 99,000×g for 45-60 min. Virus pellets were resuspended in Triton X-100 lysis buffer [300 mM NaCl, 50 mM Tris-HCl (pH 7.5), 0.5% Triton X-100, 10 mM iodoacetamide, and protease inhibitor cocktail tablets (Roche)]. CA and CA-SP1 proteins were separated on 13.5-15% polyacrylamide gels by SDS-polyacrylamide gel electrophoresis, exposed to a phosphorimager plate (Fuji) and quantified by Quantity One software (Bio-Rad).

In a further experiment the test system is pNL4-3 SP1-V7A. The experiment is described as follows: CA-SP1 accumulation assay, SP1-V7A derivative. It is filed as cell-based, HIV-1. The settings on record: HeLa or 293T cells; for % CA-SP1 Accumulation 10 nM SP1 V7A: 10 nM compound; for % CA-SP1 Accumulation 100 nM SP1 V7A: 100 nM compound. How it is done:
as §1, §2

Structures can show the parent of a compound that is named as a salt.

Take `C=C(C)[C@@H]1CC[C@]2(CNCCN3CCN(Cc4ccccc4)CC3)CC[C@]3(C)[C@H](CC[C@@H]4[C@@]5(C)CC[C@H](OC(=O)CC(C)(C)C(=O)O)C(C)(C)[C@@H]5CC[C@]43C)[C@@H]12` [Compound 51w, (3β)-28-[[2-[4-(Phenylmethyl)piperazin-1-yl]ethyl]amino]lup-20(29)-en-3-ol, 3-(1-Hydrogen 2,2-Dimethylbutanedioate) Sesquisulfate]: in the experiment with WT pNL4-3, the “% CA-SP1 Accumulation 10 nM NL4-3” value is on record as 16.3% and the “% CA-SP1 Accumulation 100 nM NL4-3” value stood at 50.1%. Further, in the experiment with pNL4-3 SP1-V7A, the “% CA-SP1 Accumulation 10 nM SP1 V7A” value stood at 9.6% and the “% CA-SP1 Accumulation 100 nM SP1 V7A” value was found to be 21.6%.
Take `CC(C)(CC(=O)O[C@H]1CC[C@]2(C)[C@H]3CC[C@@H]4[C@H]5[C@H](C6(C)CC6)CC[C@]5(CCNCCN5CCCC5)CC[C@@]4(C)[C@]3(C)CC[C@H]2C1(C)C)C(=O)O` [Compound 51h, (3β)-17-[2-[[2-(1-Pyrrolidinyl)ethyl]amino]ethyl]-20,29-methano-28-norlupan-3-ol, 3-(1-Hydrogen 2,2-Dimethylbutanedioate)]: the “% CA-SP1 Accumulation 100 nM NL4-3” value in the experiment with WT pNL4-3 is 70.1%. Moreover, the “% CA-SP1 Accumulation 100 nM SP1 V7A” value in the experiment with pNL4-3 SP1-V7A is 20.1%.
Consider `C=C(C)[C@@H]1CC[C@]2(CCCNCCN3CCN(S(C)(=O)=O)CC3)CC[C@]3(C)[C@H](CC[C@@H]4[C@@]5(C)CC[C@H](OC(=O)CC(C)(C)C(=O)O)C(C)(C)[C@@H]5CC[C@]43C)[C@@H]12` [Compound 51cc, (3β)-17-[3-[[2-[4-(Methylsulfonyl)piperazin-1-yl]ethyl]amino]propyl]-28-norlup-20(29)-en-3-ol, 3-(1-Hydrogen 2,2-Dimethylbutanedioate) Sesquisulfate], for which, in the experiment with WT pNL4-3, the “% CA-SP1 Accumulation 10 nM NL4-3” value is 26.0% and the “% CA-SP1 Accumulation 100 nM NL4-3” value stood at 58.4%. In the experiment with pNL4-3 SP1-V7A, the “% CA-SP1 Accumulation 10 nM SP1 V7A” value is given as 12.5% and the “% CA-SP1 Accumulation 100 nM SP1 V7A” value came out at 19.3%.
Take `CCN1CCC(NCC[C@]23CC[C@@H](C4(C)CC4)[C@@H]2[C@H]2CC[C@@H]4[C@@]5(C)CC[C@H](OC(=O)CC(C)(C)C(=O)O)C(C)(C)[C@@H]5CC[C@@]4(C)[C@]2(C)CC3)CC1` [Compound 51k]: in the experiment on WT pNL4-3, the “% CA-SP1 Accumulation 100 nM NL4-3” value was 55.0 (2) %. The “% CA-SP1 Accumulation 100 nM SP1 V7A” value in the experiment on pNL4-3 SP1-V7A is recorded as 27.3 (2) %.
For `C=C(C)[C@@H]1CC[C@]2(CNCCCN3CCCC3)CC[C@]3(C)[C@H](CC[C@@H]4[C@@]5(C)CC[C@H](OC(=O)CC(C)(C)C(=O)O)C(C)(C)[C@@H]5CC[C@]43C)[C@@H]12` [Compound 51v, (3β)-28-[[3-(1-Pyrrolidinyl)propyl]amino]lup-20(29)-en-3-ol, 3-(1-Hydrogen 2,2-Dimethylbutanedioate) Sulfate], in the experiment on WT pNL4-3, the “% CA-SP1 Accumulation 10 nM NL4-3” value was found to be 21.9% and the “% CA-SP1 Accumulation 100 nM NL4-3” value is listed as 57.2%. Besides, in the experiment on pNL4-3 SP1-V7A, the “% CA-SP1 Accumulation 10 nM SP1 V7A” value is recorded as 10.3% and the “% CA-SP1 Accumulation 100 nM SP1 V7A” value is listed as 26.9%.
